Assays:
FU97 (Gastric Carcinoma) = assay: combination Emax (second highest fraction inhibited in the dose matrix, 72 h); higher = more inhibition; extreme values may be limits of the assay
Procedure, shortened: (§1)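 Cell lines grown in DMEM/F12 or RPMI with 10% FBS were plated in 1536-well plates and held 24 hours at 37°C, 5% CO2 before 72 hours of exposure to two-drug dose matrices, with DMSO typically at 0.2%. CellTiter-Glo 2.0 luminescence gave viability, which was converted to inhibition. Vehicle wells were set to 0 and blank wells to 1. Combination Emax is the second-highest inhibition in the matrix, and Bliss excess is the observed combination effect minus the expected EA + EB − EA·EB, where EA and EB are the single-agent effects.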

[1] = system: PANC-10-05 (Pancreatic Carcinoma); assay: as above
Procedure, shortened: as §1

CS(=O)(=O)CCNCc1ccc(-c2ccc3ncnc(Nc4ccc(OCc5cccc(F)c5)c(Cl)c4)c3c2)o1 [Lapatinib] + NC1(c2ccc(-c3nc4ccn5c(=O)[nH]nc5c4cc3-c3ccccc3)cc2)CCC1 [MK-2206] (first compound max 10 µM, 7x7, partner max 10 µM)
combination Emax (FU97 (Gastric Carcinoma)): 0.795 | combination Emax [1]: 0.613

Source: the supplement of paper PMC11061612
